Tested on: hemangioma tumor spheres
Details: DMEM/F12 + 50 μg/ml VEGF + NEAA
Protocol: Another key property of stem cells is their ability to differentiate into mature cells. To assess whether hemangioma tumor sphere cells are able to differentiate into mature cells, tumor cells were cultured in appropriate growth factors.

## VEGF
72 hours
  differentiation of hemangioma tumor sphere cells into mature cells: differentiated into the endothelial-like tissue
phase-contrast microscopy
  time to changes in cell morphology: ≤ 24 hours

Source: patent US8609414B2, “Isolation and growth of stem cells from hemangiomas” (priority 2007, dated 2013)
